Laboratory results: US20260125379A1, “PRODRUG OF JAK KINASE INHIBITOR” (E-nitiate Biopharmaceuticals (Hangzhou) Co., Ltd, priority 2022, published 2026)
pIC50: −log10 of the molar value. Where a name gives a salt, the structure may show the parent alone.

Tests used:
JAK1 = JAK1 (Homo sapiens, UniProt P23458); test: JAK1 kinase inhibition assay (ULight-JAK-1 substrate, Eu-labeled anti-phosphotyrosine antibody); format: biochemical; conditions: JAK1 10 nM, substrate 50 nM, ATP 40 μM, 2 hours at room temperature
Method: (§1) Example A: Activity Detection of JAK Kinase Small Molecule Inhibitors
(§2) Kinase reaction buffer was prepared with the following components: 50 mM HEPES, pH 7.5, 1 mM EGTA, 10 mM MgCl2, 2 mM DTT, 0.01% Tween20.
(§3) Detection buffer was prepared by diluting 10× detection buffer to IX with deionized water in a ratio of 9:1.
(§4) JAK kinase was diluted with kinase reaction buffer to 4× final concentration (JAK1: 40 nM, JAK2: 0.5 nM).
(§5) ULight™-JAK-1 (Tyr1023) substrate was diluted with kinase reaction buffer to 200 nM (final concentration: 50 nM).
(§6) ATP was diluted with kinase reaction buffer to 4× final concentration (JAK1: 160 μM, JAK2: 40 μM).
(§7) Compound to be tested was dissolved with DMSO to obtain a 10 mM storage solution, which was diluted to desired concentrations by a 3-fold gradient; for each compound 10 concentration points were set, and the final concentration of the compound to be tested ranges from 10 μM to 0.5 nM.
(§8) EDTA was dissolved with 1× detection buffer to 40 mM (EDTA final concentration: 10 mM).
(§9) Eu-labeled detection antibody (anti-phosphotyrosine (PT66)) was diluted with 1× detection buffer to 8 nM (final antibody concentration: 2 nM).
(§10) (1) To a 384-well plate, 2.5 μL 4× kinase solution and 2.5 μL 4× test compound solution with different concentrations that have been diluted were added successively, each concentration was set in duplicate, and an enzyme solution blank control and a negative control (DMSO group) were also set.
(§11) (2) The 384-well plate was shaken to mix enzyme and compound well, and then centrifuged at 1000 rpm for 1 minute, and incubated at room temperature for 60 minutes.
(§12) (3) 2.5 μL 4× substrate solution was added to the 384-well plate and centrifuged at 1000 rpm for 1 minute.
(§13) (4) 2.5 μL 4× ATP solution was added to the 384-well plate and centrifuged at 1000 rpm for 1 minute, and then enzyme reaction was initiated.
(§14) (5) For JAK1 the reaction was carried out at room temperature for 2 hours, and for JAK2 the reaction was carried out at room temperature for 1 hour.
(6) For the JAK1 reaction, the final concentrations of components are as follows: JAK1: 10 nM, substrate: 50 nM, ATP: 40 μM; and the final concentration of the tested compounds ranges from 10μ M to 0.5 nM.
(§15) (7) After the enzyme reaction was completed, 5 μL 4× enzyme reaction termination solution was added to each well of the 384-well plate, and then centrifuged at 1000 rpm for 1 minute and incubated at room temperature for 5 minutes.
(§16) (8) 5 μL 4× detection antibody solution (the final concentration of detection antibody is 2 nM) was added to each well of the 384-well plate, and then centrifuged at 1000 rpm for 1 minute and incubated at room temperature for 1 hour.
(§17) (9) At the antibody incubation was completed, signal value of each well was measured on a Envision plate reader.
(§18) (1) The percentage inhibition rate corresponding to each concentration of the tested compound was calculated on the basis that the blank control of enzyme solution corresponds to 100% and the negative control (DMSO group) corresponds to 0%.
(§19) (2) A nonlinear regression analysis of the logarithm of the concentration of the detected compound and the corresponding percentage inhibition rate was performed in GraphPad Prism software to obtain the half-inhibiting concentration (IC50) of the tested compound.

JAK2 = JAK2 (Homo sapiens, UniProt O60674); test: JAK2 kinase inhibition assay (ULight-JAK-1 substrate, Eu-labeled anti-phosphotyrosine antibody); format: biochemical; conditions: JAK2 0.125 nM, substrate 50 nM, ATP 10 μM, 1 hour at room temperature
Method: as §1, §2, §3, §4, §5, §6, §7, §8, §9, §10, §11, §12, §13, §14
For the JAK2 reaction, the final concentrations of component are as follows: JAK2: 0.125 nM, substrate: 50 nM, ATP: 10 μM; and the final concentration of the tested compound ranges from 10 μM to 0.5 nM.
as §15, §16, §17, §18, §19

Sequence of JAK1 (P23458 whole entry, species assumed): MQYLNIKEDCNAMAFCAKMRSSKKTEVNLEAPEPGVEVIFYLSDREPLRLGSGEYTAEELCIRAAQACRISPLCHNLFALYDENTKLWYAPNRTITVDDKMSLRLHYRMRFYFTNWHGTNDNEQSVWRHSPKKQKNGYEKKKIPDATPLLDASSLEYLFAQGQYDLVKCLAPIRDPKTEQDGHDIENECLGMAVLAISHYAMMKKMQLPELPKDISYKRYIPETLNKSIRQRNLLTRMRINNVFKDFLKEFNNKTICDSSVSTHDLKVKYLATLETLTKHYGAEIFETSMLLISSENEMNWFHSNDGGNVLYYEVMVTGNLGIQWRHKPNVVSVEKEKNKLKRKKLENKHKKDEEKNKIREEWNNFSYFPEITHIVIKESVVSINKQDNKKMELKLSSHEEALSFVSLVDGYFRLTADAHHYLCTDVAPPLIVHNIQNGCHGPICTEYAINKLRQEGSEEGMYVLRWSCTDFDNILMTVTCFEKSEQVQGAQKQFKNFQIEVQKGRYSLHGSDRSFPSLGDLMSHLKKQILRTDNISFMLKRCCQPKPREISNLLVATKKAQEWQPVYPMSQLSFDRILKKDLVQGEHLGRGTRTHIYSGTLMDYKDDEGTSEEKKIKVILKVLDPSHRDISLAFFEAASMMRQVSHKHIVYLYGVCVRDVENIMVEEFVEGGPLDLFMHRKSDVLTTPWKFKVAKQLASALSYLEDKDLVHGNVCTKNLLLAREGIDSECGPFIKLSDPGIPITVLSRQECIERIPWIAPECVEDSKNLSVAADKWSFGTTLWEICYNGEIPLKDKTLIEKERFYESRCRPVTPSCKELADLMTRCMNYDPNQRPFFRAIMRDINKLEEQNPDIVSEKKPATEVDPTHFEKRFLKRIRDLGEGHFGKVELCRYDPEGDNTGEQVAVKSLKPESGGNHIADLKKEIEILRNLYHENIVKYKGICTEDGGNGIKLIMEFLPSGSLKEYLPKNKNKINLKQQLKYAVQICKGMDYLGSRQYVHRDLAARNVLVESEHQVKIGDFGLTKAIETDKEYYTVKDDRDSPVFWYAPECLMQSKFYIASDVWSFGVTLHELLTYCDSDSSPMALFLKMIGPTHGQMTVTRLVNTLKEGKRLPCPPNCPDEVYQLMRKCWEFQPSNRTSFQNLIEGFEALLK
Sequence of JAK2 (O60674 whole entry, species assumed): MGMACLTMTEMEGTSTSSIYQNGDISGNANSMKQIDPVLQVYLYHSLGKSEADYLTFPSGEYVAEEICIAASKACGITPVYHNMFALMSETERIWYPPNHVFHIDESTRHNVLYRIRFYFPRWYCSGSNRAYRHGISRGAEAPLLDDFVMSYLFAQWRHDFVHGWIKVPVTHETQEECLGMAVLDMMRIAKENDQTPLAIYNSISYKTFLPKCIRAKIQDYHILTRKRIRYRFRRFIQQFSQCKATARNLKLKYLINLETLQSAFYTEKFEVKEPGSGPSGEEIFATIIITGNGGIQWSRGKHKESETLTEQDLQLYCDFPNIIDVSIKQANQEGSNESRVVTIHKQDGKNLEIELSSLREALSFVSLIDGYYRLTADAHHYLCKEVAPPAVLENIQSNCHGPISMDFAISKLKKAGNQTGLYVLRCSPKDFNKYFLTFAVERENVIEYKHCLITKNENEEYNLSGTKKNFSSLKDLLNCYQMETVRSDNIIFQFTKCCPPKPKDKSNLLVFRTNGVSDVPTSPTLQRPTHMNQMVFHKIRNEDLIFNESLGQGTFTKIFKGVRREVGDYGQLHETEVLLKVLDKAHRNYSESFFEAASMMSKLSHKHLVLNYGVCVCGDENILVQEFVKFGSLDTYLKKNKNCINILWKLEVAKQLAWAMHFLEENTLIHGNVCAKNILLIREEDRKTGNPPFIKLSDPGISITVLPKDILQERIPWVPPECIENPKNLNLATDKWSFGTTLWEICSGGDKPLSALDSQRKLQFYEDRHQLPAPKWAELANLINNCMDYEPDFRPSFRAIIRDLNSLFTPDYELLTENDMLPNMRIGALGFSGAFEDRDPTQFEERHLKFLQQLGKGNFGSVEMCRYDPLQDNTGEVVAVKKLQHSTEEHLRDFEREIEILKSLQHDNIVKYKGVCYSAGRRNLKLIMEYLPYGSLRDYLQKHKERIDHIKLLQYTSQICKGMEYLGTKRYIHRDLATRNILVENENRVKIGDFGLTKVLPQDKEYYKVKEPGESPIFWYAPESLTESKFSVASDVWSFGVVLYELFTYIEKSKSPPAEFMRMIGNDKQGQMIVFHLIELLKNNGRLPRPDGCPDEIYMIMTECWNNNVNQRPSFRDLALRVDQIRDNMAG

Row | pIC50 (JAK1) | pIC50 (JAK2) | SMILES
1 | 8.52 | 7.25 | CC(C)[C@H](N)C(=O)O[C@H](C)c1nc2cnc3[nH]ccc3c2n1N1CCC(CC#N)CC1 [Compound A9, (R)-1-(1-(4-cyanomethylpiperidin-1-yl)-1,6-dihydroimidazo[4,5-d]pyrrolo[2,3-b]pyridin-2-yl)ethyl L-valinate]
2 | 6.98 | 7.00 | C[C@@H](OC(=O)Nc1ccccc1/N=N/c1ccc(O)c(C(=O)O)c1)c1nc2cnc3[nH]ccc3c2n1N1CCC(CC#N)CC1 [Compound A4]
3 | 8.67 | 7.41 | Nc1nc2cnc3[nH]ccc3c2n1N1CCCCC1 [Compound B1, 1-(Piperidin-1-yl)-1,6-dihydroimidazo[4,5-d]pyrrolo[2,3-b]pyridin-2-amine]
4 | 8.88 | 8.15 | N#CC[C@H]1CC[C@H](n2c(N)nc3cnc4ccoc4c32)CC1 [Compound B5, 2-((1R,4R)-4-(2-amino-1H-furo[3,2-b]imidazo[4,5-d]pyridin-1-yl)cyclohexyl)acetonitrile]
5 | 10.35 | 10.00 | N#CCS(=O)(=O)NCC1CCN(n2c(N)nc3cnc4[nH]ccc4c32)CC1 [Compound B2, N-((1-(2-aminoimidazo[4,5-d]pyrrolo[2,3-b]pyridin-1(6H)-yl)-piperidin-4-yl)methyl)-1-cyano methanesulfonamide]
6 | 8.99 | 9.33 | N#CC[C@H]1CC[C@H](n2c(/N=N/c3ccc(O)c(C(=O)NCCS(=O)(=O)O)c3)nc3cnc4[nH]ccc4c32)CC1 [Compound B12, 2-(5-((E)-(1-((1R,4R)-4-(cyanomethyl)cyclohexyl)-1,6-dihydroimidazo[4,5-d]pyrrolo[2,3-b]pyridin-2-yl)diazenyl)-2-hydroxybenzamido) ethan-1-sulfonic acid]
7 | 8.76 | 8.37 | N#CC[C@H]1CC[C@H](n2c(/N=N/c3ccc(O)c(C(=O)N[C@H](CC(=O)O)C(=O)O)c3)nc3cnc4[nH]ccc4c32)CC1 [Compound B8, (5-((E)-(1-((1R,4R)-4-(cyanomethyl)cyclohexyl)-1,6-dihydroimidazo[4,5-d]pyrrolo[2,3-b]pyridin-2-yl)diazenyl)-2-hydroxybenzoyl)-D-aspartic acid]
8 | 7.41 | 7.42 | CSCC1(C)CCN(n2c(CCO[N+](=O)[O-])nc3cnc4[nH]ccc4c32)CC1 [Compound A12, 2-(1-(4-Methyl-4-((methylthio)methyl)piperidin-1-yl)-1,6-dihydroimidazo[4,5-d]pyrrolo[2,3-b]pyridin-2-yl)ethyl nitrate]
9 | 8.25 | 8.38 | CSCC1(C)CCN(n2c(CO[N+](=O)[O-])nc3cnc4[nH]ccc4c32)CC1 [Compound A11, (1-(4-Methyl-4-((methylthio)methyl)piperidin-1-yl)-1,6-dihydroimidazo[4,5-d]pyrrolo[2,3-b]pyridin-2-yl)methyl nitrate]
10 | 9.33 | 8.76 | N#CCC1CCN(n2c(N)nc3cnc4ccsc4c32)CC1 [Compound B4, 2-(1-(2-amino-1H-imidazo[4,5-d]thieno[3,2-b]pyridin-1-yl)piperidin-4-yl)acetonitrile]
11 | 8.23 | 7.14 | CC(C)[C@@H](N)C(=O)O[C@H](C)c1nc2cnc3[nH]ccc3c2n1N1CCC(CC#N)CC1 [Compound A8, (R)-1-(1-(4-(cyanomethyl)piperidin-1-yl)-1,6-dihydroimidazo[4,5-d]pyrrolo[2,3-b]pyridin-2-yl)ethyl D-valinate]
12 | 7.50 | 7.39 | C[C@@H](OC(=O)CCCCO[N+](=O)[O-])c1nc2cnc3[nH]ccc3c2n1N1CCC(CC#N)CC1 [Compound A6, (R)-1-(1-(4-(cyanomethyl)piperidin-1-yl)-1,6-dihydroimidazo[4,5-d]pyrrolo[2,3-b]pyridin-2-yl)ethyl 5-(nitrooxy)valerate]
13 | 8.87 | 9.55 | N#CC[C@H]1CC[C@H](n2c(/N=N/c3ccc(O)c(C(=O)N[C@H](CCC(=O)O)C(=O)O)c3)nc3cnc4[nH]ccc4c32)CC1 [Compound B10, (5-((E)-(1-((1R,4R)-4-(cyanomethyl)cyclohexyl)-1,6-dihydroimidazo[4,5-d]pyrrolo[2,3-b]pyridin-2-yl)diazenyl)-2-hydroxybenzoyl)-D-glutamic acid]
14 | 9.00 | 9.57 | N#CCC1CCN(n2c(/N=N/c3ccc(O)c(C(=O)O)c3)nc3cnc4[nH]ccc4c32)CC1 [Compound B7, (E)-5-((1-(4-cyanomethylpiperidin-1-yl)-1,6-dihydroimidazo[4,5-d]pyrrolo[2,3-b]pyridin-2-yl)diazenyl)-2-hydroxybenzoic acid]
15 | 7.01 | 7.68 | COC(=O)/C=C/C(=O)OCO[C@H](C)c1nc2cnc3[nH]ccc3c2n1N1CCC(CC#N)CC1 [Compound A10, (R)-(1-(1-(4-(cyanomethyl)piperidin-1-yl)-1,6-dihydroimidazo[4,5-d]pyrrolo[2,3-b]pyridin-2-yl)ethoxy)methyl monomethyl fumarate]
16 | 8.80 | 8.47 | N#CC[C@H]1CC[C@H](n2c(/N=N/c3ccc(O)c(C(=O)N[C@H](CCCN=C(N)N)C(=O)O)c3)nc3cnc4[nH]ccc4c32)CC1 [Compound B11, (R)-2-(5-((E)-(1-((1R,4R)-4-(cyanomethyl)cyclohexyl)-1,6-dihydroimidazo[4,5-d]pyrrolo[2,3-b]pyridin-2-yl)diazenyl)-2-hydroxybenzamido)-5-((diaminomethylene)amino)valeric acid]
17 | 8.41 | 7.24 | C[C@@H](OC(=O)CN(C)C)c1nc2cnc3[nH]ccc3c2n1N1CCC(CC#N)CC1 [Compound A7, (R)-1-(1-(4-(cyanomethyl)piperidin-1-yl)-1,6-dihydroimidazo[4,5-d]pyrrolo[2,3-b]pyridin-2-yl)ethyl dimethylglycinate]
18 | 8.74 | 8.39 | CC(=O)O[C@H](C)c1nc2cnc3[nH]ccc3c2n1N1CCC(CC#N)CC1 [Compound A5, (R)-1-(1-(4-(cyanomethyl)piperidin-1-yl)-1,6-dihydroimidazo[4,5-d]pyrrolo[2,3-b]pyridin-2-yl)ethyl acetate]
19 | 8.60 | 8.18 | N#CC[C@H]1CC[C@H](n2c(/N=N/c3ccc(O)c(C(=O)N[C@H](CCCCN)C(=O)O)c3)nc3cnc4[nH]ccc4c32)CC1 [Compound B9, (5-((E)-(1-((1R,4R)-4-(cyanomethyl)cyclohexyl)-1,6-dihydroimidazo[4,5-d]pyrrolo[2,3-b]pyridin-2-yl)diazenyl)-2-hydroxybenzoyl)-D-lysine]
